Earlier results on two substances are cited in patent publication US5314690A, “Method and composition for treating IgE-mediated allergies” (Northwestern University, priority 1992, dated 1994).

In data set [1] the test system is immune response. Particulars: reported by Siemion et al.; for Effect on the immune response at low doses: low doses (one dose).
The subject of data set [2] is immune response. The conditions noted are these: reported by Siemion et al.
Setting [3] is: listed as N-terminal tetrapeptide.
The mark [4] stands for this setting: listed as C-terminal pentapeptide.

Like-named read-outs stand apart in the source and are kept apart here. Where no end group is shown, it is not given here.

For the substance Gly-Pro-Arg-Pro (GPRP) [SP^1-4, No. 5], the figures for the “Effect on the immune response at higher doses” value in the data set with immune response [1] and with immune response [1] (setting [3]) were “slightly stimulated” and “stimulatory at a higher dose”, respectively. For the same substance, the results for the “Effect on the immune response at low doses” value in the data set on immune response [1] and with immune response [1] (setting [3]) were “only moderately suppressed the immune response” and “suppressive at one dose”, respectively.
Take “Phe-Phe-Gly-Leu-Met-NH2 (FFGLM-NH2) [SP^7-11, No. 2]”: the “Effect on the immune response in vitro” value in the data set on immune response [2] was “suppressed the immune response in vitro”; with immune response [2] (setting [4]), “immunosuppressant”. Moreover, the “Effect on the immune response in vivo” value in the data set on immune response [1] is listed as “distinct immuno-suppression in vivo”; with immune response [1] (setting [4]) it was “immunosuppressant”.
